Laboratory results taken from the supplement of paper PMC9265050, “Inhibition of RNA Binding in SND1 Increases the Levels of miR-1-3p and Sensitizes Cancer Cells to Navitoclax” (Cancers, 2022).

Tested on: SW480
Assay: drug sensitivity score (DSS, integrated dose-response area); higher = more sensitive (stronger viability reduction); extreme values may be limits of the assay
Outline: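 SW480 cells stably carrying doxycycline-inducible control or SND1-targeting shRNA were induced with 0.1 µg/mL doxycycline for 7 days. They were then plated at 1000 cells per well in 384-well plates holding 525 commercially available small-molecule inhibitors at five concentrations. Viability was read with CellTiter-Glo after 72 h. The drug sensitivity score integrates the area under a fitted non-linear dose–response model.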

[1] = shRNA: SND1 shRNA1 (SND1 silenced)
[2] = shRNA: SND1 shRNA2 (SND1 silenced)
[3] = shRNA: control shRNA (non-targeting)

For O=C(Nc1c[nH]nc1-c1nc2ccc(CN3CCOCC3)cc2[nH]1)NC1CC1 [AT9283], the drug sensitivity score [1] was 3.6 DSS, the drug sensitivity score [2] was 0 DSS and the drug sensitivity score [3] was 0.6 DSS.
CCc1c2c(nc3ccc(O)cc13)-c1cc3c(c(=O)n1C2)COC(=O)[C@]3(O)CC [SN-38] was tested, and the drug sensitivity score [1] was 21.2 DSS, the drug sensitivity score [2] was 12.5 DSS and the drug sensitivity score [3] was 18.7 DSS.
Compound Cc1ccc(NC(=O)c2ccc(CN3CCN(C)CC3)cc2)cc1Nc1nccc(-c2cccnc2)n1 [Imatinib] has a drug sensitivity score [1] of 0.7 DSS, a drug sensitivity score [2] of 1.4 DSS and a drug sensitivity score [3] of 2.5 DSS.
With CC/C(=C(\c1ccc(O)cc1)c1ccc(OCCN(C)C)cc1)c1ccccc1 [4-hydroxytamoxifen] the drug sensitivity score [1] was 6.8 DSS, the drug sensitivity score [2] was 5.4 DSS and the drug sensitivity score [3] was 8.7 DSS.
Nc1cc(C(F)(F)F)c(-c2cc(N3CCOCC3)nc(N3CCOCC3)n2)cn1 [Buparlisib] was tested, and the drug sensitivity score [1] was 8.9 DSS, the drug sensitivity score [2] was 7.7 DSS and the drug sensitivity score [3] was 5.9 DSS.
CN[C@@H](C)C(=O)N[C@H](C(=O)N1CCC[C@H]1c1nc(C(=O)c2ccc(F)cc2)cs1)C1CCCCC1 [LCL161] gave a drug sensitivity score [1] of 0.2 DSS, a drug sensitivity score [2] of 0 DSS and a drug sensitivity score [3] of 0.5 DSS.
For Cc1nc(-c2cn3c(n2)-c2ccc(-c4cnn(C(C)(C)C(N)=O)c4)cc2OCC3)n(C(C)C)n1 [Taselisib], the drug sensitivity score [1] was 0 DSS, the drug sensitivity score [2] was 0.7 DSS and the drug sensitivity score [3] was 0 DSS.
In the case of CC(C)Cn1cnc2c(N)nc3ccccc3c21 [Imiquimod], the drug sensitivity score [1] is reported as 0.9 DSS, the drug sensitivity score [2] is reported as 0.1 DSS and the drug sensitivity score [3] is reported as 3.5 DSS.
For NC(=O)c1cccc2cn(-c3ccc([C@@H]4CCCNC4)cc3)nc12 [Niraparib], the drug sensitivity score [1] was 3.3 DSS, the drug sensitivity score [2] was 1.1 DSS and the drug sensitivity score [3] was 4.9 DSS.
C[C@@H]1CN(Cc2ccc(F)cc2)[C@@H](C)CN1C(=O)c1cc2c(C(=O)C(=O)N(C)C)cn(C)c2cc1Cl [Talmapimod] showed a drug sensitivity score [1] of 0 DSS and a drug sensitivity score [3] of 0 DSS.
Cc1ccc2nc(CN(CCN(Cc3nc4ccc(C)cc4[nH]3)Cc3nc4ccc(C)cc4[nH]3)Cc3nc4ccc(C)cc4[nH]3)[nH]c2c1 showed a drug sensitivity score [1] of 1.5 DSS, a drug sensitivity score [2] of 1.3 DSS and a drug sensitivity score [3] of 2.1 DSS.
For COc1cc(OC)c(/C=C/S(=O)(=O)Cc2ccc(OC)c(NCC(=O)O)c2)c(OC)c1 [Rigosertib], the drug sensitivity score [1] was 15.1 DSS, the drug sensitivity score [2] was 18.2 DSS and the drug sensitivity score [3] was 16.4 DSS.
For COc1cc2/c(=N/c3ccc(Br)cc3F)nc[nH]c2cc1OCC1CCN(C)CC1 [Vandetanib], the drug sensitivity score [1] was 2.1 DSS, the drug sensitivity score [2] was 5.8 DSS and the drug sensitivity score [3] was 5.9 DSS.
CNC(=O)c1ccccc1Nc1nc(Nc2ccc3c(c2OC)CCC[C@H](N2CCN(CCO)CC2)C3)ncc1Cl showed a drug sensitivity score [1] of 3.9 DSS, a drug sensitivity score [2] of 3.5 DSS and a drug sensitivity score [3] of 5.5 DSS.
With Cc1cc(C(=O)NOCCO)c(Nc2ccc(I)cc2F)n(C)c1=O [AZD-8330] the drug sensitivity score [1] was 32.4 DSS, the drug sensitivity score [2] was 22.9 DSS and the drug sensitivity score [3] was 18.4 DSS.
For CON(C)C(=O)N1N=C(c2cc(F)ccc2F)S[C@@]1(CCCN)c1ccccc1 [Filanesib], the drug sensitivity score [1] was 16.8 DSS, the drug sensitivity score [2] was 16 DSS and the drug sensitivity score [3] was 16.7 DSS.
With CCCCc1nc2cc(/C=C/C(=O)NO)ccc2n1CCN(CC)CC [Pracinostat] the drug sensitivity score [1] was 21.1 DSS, the drug sensitivity score [2] was 17.2 DSS and the drug sensitivity score [3] was 19.3 DSS.
COc1cc(F)c(F)c(Nc2ccc(I)cc2F)c1NS(=O)(=O)C1(C[C@H](O)CO)CC1 [Refametinib] was tested, and the drug sensitivity score [1] was 26.8 DSS, the drug sensitivity score [2] was 18 DSS and the drug sensitivity score [3] was 11.1 DSS.
In the case of O=C(NOC[C@H](O)CO)c1ccc(F)c(F)c1Nc1ccc(I)cc1F, the drug sensitivity score [1] is reported as 17.9 DSS, the drug sensitivity score [2] is reported as 8.2 DSS and the drug sensitivity score [3] is reported as 9.5 DSS.
In the case of N#CC1(c2ccc(NC(=O)c3cccnc3NCc3ccncc3)cc2)CCCC1 [Apatinib], the drug sensitivity score [1] is reported as 0 DSS, the drug sensitivity score [2] is reported as 0 DSS and the drug sensitivity score [3] is reported as 0 DSS.
For COc1cccc2c1C(=O)c1c(O)c3c(c(O)c1C2=O)C[C@@](O)(C(C)=O)C[C@@H]3O[C@H]1C[C@H](N)[C@H](O)[C@H](C)O1 [Daunorubicin], the drug sensitivity score [1] was 9.5 DSS, the drug sensitivity score [2] was 7.3 DSS and the drug sensitivity score [3] was 10 DSS.
Work on O=C(c1ccc(OCCN2CCCCC2)cc1)c1c(-c2ccc(O)cc2)sc2cc(O)ccc12 [Raloxifene] yielded a drug sensitivity score [1] of 6.6 DSS, a drug sensitivity score [2] of 4.1 DSS and a drug sensitivity score [3] of 7.2 DSS.
With Cc1nc(NC(=O)N2CCC[C@H]2C(N)=O)sc1-c1ccnc(C(C)(C)C(F)(F)F)c1 [Alpelisib] the drug sensitivity score [1] was 2.8 DSS, the drug sensitivity score [2] was 5.2 DSS and the drug sensitivity score [3] was 4.3 DSS.
Work on COc1cc(NS(C)(=O)=O)ccc1Nc1c2ccccc2nc2ccccc12 [Amsacrine] yielded a drug sensitivity score [1] of 8.6 DSS, a drug sensitivity score [2] of 3.7 DSS and a drug sensitivity score [3] of 7 DSS.
For O=C(Nc1cccc(Cl)c1)Nc1ncc(CCNc2ncnc3ccsc23)s1 [SNS-314], the drug sensitivity score [1] was 4.8 DSS, the drug sensitivity score [2] was 4.3 DSS and the drug sensitivity score [3] was 5.6 DSS.
Work on C/C(=C\c1csc(C)n1)[C@@H]1C[C@@H]2O[C@]2(C)CCC[C@H](C)[C@H](O)[C@@H](C)C(=O)C(C)(C)[C@@H](O)CC(=O)N1 [Ixabepilone] yielded a drug sensitivity score [1] of 3 DSS, a drug sensitivity score [2] of 2.7 DSS and a drug sensitivity score [3] of 2.5 DSS.
C[C@]12C=CC(=O)C=C1CC[C@@H]1[C@@H]2C(=O)C[C@@]2(C)[C@H]1CC[C@]2(O)C(=O)CO [Prednisone] gave a drug sensitivity score [1] of 0.5 DSS, a drug sensitivity score [2] of 0.1 DSS and a drug sensitivity score [3] of 2.9 DSS.
With NCC(=O)Nc1ccc(-n2nc(C(F)(F)F)cc2-c2ccc3c(ccc4ccccc43)c2)cc1 the drug sensitivity score [1] was 10 DSS, the drug sensitivity score [2] was 5.3 DSS and the drug sensitivity score [3] was 7.5 DSS.
With CO[C@H]1C[C@@H]2CC[C@@H](C)[C@@](O)(O2)C(=O)C(=O)N2CCCC[C@H]2C(=O)O[C@H]([C@H](C)C[C@@H]2CC[C@@H](O)[C@H](OC)C2)CC(=O)[C@H](C)/C=C(\C)[C@@H](O)[C@@H](OC)C(=O)[C@H](C)C[C@H](C)/C=C/C=C/C=C/1C [Sirolimus] the drug sensitivity score [1] was 7.8 DSS and the drug sensitivity score [3] was 6.9 DSS.
COc1cc2c(cc1O)CC[C@@H]1[C@@H]2CC[C@]2(C)[C@@H](O)CC[C@@H]12 [2-methoxyestradiol] showed a drug sensitivity score [1] of 5.5 DSS, a drug sensitivity score [2] of 6.6 DSS and a drug sensitivity score [3] of 6.1 DSS.
Compound CC(C)(C)c1nc(-c2cccc(NS(=O)(=O)c3c(F)cccc3F)c2F)c(-c2ccnc(N)n2)s1 [Dabrafenib] has a drug sensitivity score [1] of 0 DSS and a drug sensitivity score [3] of 0 DSS.
c1cn2cc(-c3ccc4cn[nH]c4c3)nc(Nc3ccc(N4CCOCC4)cc3)c2n1 [Entospletinib] was tested, and the drug sensitivity score [1] was 0 DSS, the drug sensitivity score [2] was 0 DSS and the drug sensitivity score [3] was 0 DSS.
With CC(C)(O)CC(=O)NCCn1ccc2ncnc(Nc3ccc(Oc4cccc(C(F)(F)F)c4)c(Cl)c3)c21 [TAK-285] the drug sensitivity score [1] was 0 DSS, the drug sensitivity score [2] was 0 DSS and the drug sensitivity score [3] was 0 DSS.
CC(C)n1nc(-c2ccc3oc(N)nc3c2)c2c(N)ncnc21 [MLN-0128] showed a drug sensitivity score [1] of 14 DSS, a drug sensitivity score [2] of 12.3 DSS and a drug sensitivity score [3] of 9.8 DSS.
COc1c(C)cnc(Cn2cnc3c(Cl)nc(N)nc32)c1C [BIIB021] was tested, and the drug sensitivity score [1] was 17.4 DSS, the drug sensitivity score [2] was 18.4 DSS and the drug sensitivity score [3] was 17.8 DSS.
Work on COc1cc2nccc(Oc3ccc(NC(=O)NC4CC4)c(Cl)c3)c2cc1C(N)=O [Lenvatinib] yielded a drug sensitivity score [1] of 1.8 DSS, a drug sensitivity score [2] of 1.3 DSS and a drug sensitivity score [3] of 2.1 DSS.
With C=C(c1ccc(C(=O)O)cc1)c1cc2c(cc1C)C(C)(C)CCC2(C)C [Bexarotene] the drug sensitivity score [1] was 0 DSS, the drug sensitivity score [2] was 0 DSS and the drug sensitivity score [3] was 0 DSS.
For O=C(Nc1cc(Cl)cc2c1[nH]c1cnccc12)c1cccnc1 [PS-1145], the drug sensitivity score [1] was 0.4 DSS, the drug sensitivity score [2] was 0 DSS and the drug sensitivity score [3] was 1.8 DSS.
For O=C(c1ccc(F)c(F)c1Nc1ccc(I)cc1F)N1CC(O)([C@@H]2CCCCN2)C1 [Cobimetinib], the drug sensitivity score [1] was 13.3 DSS and the drug sensitivity score [3] was 7.7 DSS.
For C[C@@H]1C[C@H]2[C@@H]3CCC4=CC(=O)C=C[C@]4(C)[C@@]3(F)[C@@H](O)C[C@]2(C)[C@@]1(O)C(=O)CO [Dexamethasone], the drug sensitivity score [1] was 0 DSS, the drug sensitivity score [2] was 1.8 DSS and the drug sensitivity score [3] was 1.3 DSS.
In the case of O=C(Nc1cccc(Nc2ncc(Br)c(NCCc3cnc[nH]3)n2)c1)N1CCCC1 [BX-912], the drug sensitivity score [1] is reported as 6.7 DSS, the drug sensitivity score [2] is reported as 6.5 DSS and the drug sensitivity score [3] is reported as 8.5 DSS.
With Cn1cncc1[C@@](N)(c1ccc(Cl)cc1)c1ccc2c(c1)c(-c1cccc(Cl)c1)cc(=O)n2C [Tipifarnib] the drug sensitivity score [1] was 8.8 DSS, the drug sensitivity score [2] was 8.7 DSS and the drug sensitivity score [3] was 10.2 DSS.
For O=C(O)c1ccc2c(c1)nc(Nc1cccc(Cl)c1)c1ccncc12 [Silmitasertib], the drug sensitivity score [1] was 2.1 DSS, the drug sensitivity score [2] was 2.1 DSS and the drug sensitivity score [3] was 0.8 DSS.
In the case of Cn1cnc2c(F)c(Nc3ccc(Br)cc3Cl)c(C(=O)NOCCO)cc21 [Selumetinib], the drug sensitivity score [1] is reported as 19.1 DSS, the drug sensitivity score [2] is reported as 8.9 DSS and the drug sensitivity score [3] is reported as 4.7 DSS.
Work on CN(N=O)C(=O)N[C@@H](C=O)[C@@H](O)[C@H](O)[C@H](O)CO [Streptozocin] yielded a drug sensitivity score [1] of 0.8 DSS, a drug sensitivity score [2] of 5.9 DSS and a drug sensitivity score [3] of 4.1 DSS.
CO[C@H]1/C=C\C=C(/C)C(=O)NC2=CC(=O)C(NCCN(C)C)=C(C[C@@H](C)C[C@H](OC)[C@H](O)[C@@H](C)/C=C(\C)[C@@H]1OC(N)=O)C2=O [Alvespimycin] gave a drug sensitivity score [1] of 7 DSS, a drug sensitivity score [2] of 6 DSS and a drug sensitivity score [3] of 7.9 DSS.
Cc1nc(N)sc1-c1ccnc(Nc2ccc(N3CCOCC3)cc2)n1 [CYC-116] gave a drug sensitivity score [1] of 9.3 DSS and a drug sensitivity score [3] of 8.8 DSS.
With Cc1nc(Nc2n[nH]c3c2CN(C(=O)N[C@H](CN(C)C)c2ccccc2)C3(C)C)c2sccc2n1 the drug sensitivity score [1] was 14.9 DSS, the drug sensitivity score [2] was 13.7 DSS and the drug sensitivity score [3] was 16.5 DSS.
Cc1cc(C(C)Nc2ccccc2)c2nc(N3CCOCC3)cc(=O)n2c1 (configuration not stated) [TGX-221] was tested, and the drug sensitivity score [1] was 1.6 DSS, the drug sensitivity score [2] was 2.5 DSS and the drug sensitivity score [3] was 0.8 DSS.
